Experimental findings from patent publication US11826325B2, “Use of Belinostat or pharmaceutically acceptable salt thereof in preparation of drug for treating infection” (priority 2021, dated 2023) are described below.

For test [1], the target named is T1, HU protein (Bacillus subtilis, UniProt P08821). As to the kind of experiment: Nuclear magnetism Titration (HSQC) binding experiment. The note with it: 10 μM HU protein, 1 μL of 100 mM Belinostat stock added. From the text:
(§1) At the molecular level, a binding effect of Belinostat with the HU protein was verified by nuclear magnetism Titration and waterLOGSY experiments. The isoleucine (Ile) at the 71^St site in the HU protein was mutated into alanine (Ala) to obtain a corresponding mutant (hereinafter referred to as “HU^171A protein”), then the waterLOGSY experiment was repeated, and the binding effect of the drug and the mutated HU^171A protein disappeared, proving that a key binding site of the two was the amino acid at the 71st site in the HU protein. Specific experimental steps and experimental results are as follows:
An appropriate amount of Belinostat (MedChemExpress Company) was weighed and dissolved in DMSO-d6 (Solarbio Science & Technology Co., Ltd.) to obtain a stock solution of Belinostat with a concentration of 100 mM for use. 480 μl of solution containing 10 μM of HU protein was taken, 20 μL of D2O was added and mixed evenly, the obtained solution was transferred into a nuclear magnetic resonance tube, and an HSQC spectrogram of the HU protein was recorded on a Brooke 600 MHz nuclear magnetic resonance spectrometer (Avance III). 1 μL of Belinostat stock solution was taken, added into the foregoing nuclear magnetic resonance tube and mixed evenly, and then an HSQC spectrogram was recorded again.

The subject of test [2] is Bacillus subtilis (ATCC 23857 strain). Kind of test: Growth curve of Bacillus subtilis (OD600). In kind it is cell-based. The note with it: 24 hours. The method, then:
(§2) Before the experiment, an appropriate amount of Belinostat was weighed and dissolved in DMSO to obtain a mother liquid with a concentration of 100 mM. The mother liquid was diluted with an LB medium for use. Bacillus subtilis used in this embodiment was ATCC 23857 strain, and Staphylococcus aureus was methicillin-resistant Staphylococcus aureus ATCC BAA-1761 strain.
The experiment was performed on a 96-well plate, four groups of drug treated groups and one blank control group (that is, the Control group) were set, and each group had three repeat wells. A bacterial solution of Bacillus subtilis (ATCC 23857 strain) cultured in an LB medium was diluted to 5×10^5 CFU/mL with an LB medium, 15 wells were selected in the middle of the 96-well plate, 100 μL of diluted bacterial solution was added to each well, and then 100 μL of Belinostat solution diluted with the LB medium was added, so that the final drug concentrations in the four drug treated groups were 100 μM, 200 μM, 400 μM, and 500 μM, respectively. DMSO and the LB medium were added to the blank control group, so that the final concentration of the DMSO was 0.5% and a volume of a reaction system was consistent with that of each drug treated group. Shaking culture was performed at 37° C. for 24 hours.
Absorbance at 600 nm was used as an index of a bacterial concentration in the culture solution for determining once every 3 hours. Finally, with OD600 as a vertical coordinate and time as a horizontal coordinate, a bacterial growth curve was drawn.

In test [3] the target is T1, HU protein. Kind of test: waterLOGSY 1D NMR binding experiment, HU protein. The note with it: 10 μM protein, pH 6.5 buffer.
Text: as §1
(§3) 1 μL of the foregoing Belinostat stock solution was taken, 479 μL of buffer solution (300 mM of NaCl and 50 mM of K2HPO4, with the pH of 6.5) and 20 μL of D2O were added and mixed evenly, and then the obtained solution was transferred to the nuclear magnetic resonance tube for use. In addition, two parts of 1 μL of the foregoing Belinostat stock solution were taken, an appropriate amount of HU protein and HU^171A protein were added respectively, then an appropriate amount of buffer solution and 20 μL of D2O were added respectively, so that the total volume of the solution was 500 μL, and the final protein concentration was 10 μm. After uniform mixing, the obtained solutions were transferred to nuclear magnetic resonance tubes for use. […]

The subject of test [4] is Staphylococcus aureus (ATCC BAA-1761 strain). As to the kind of experiment: DAPI staining of Staphylococcus aureus. In kind it is cell-based. To be noted: 500 μM, 4 hours, methicillin-resistant strain. The method, then: as §2
(§4) The experiments were performed in EP tubes, and one drug treated group and one blank control group were set. A bacterial solution of Bacillus subtilis cultured in an LB medium was diluted to 5×10^5 CFU/mL with the LB medium, 100 μL of diluted bacterial solution was taken and added to a 1.5 mL EP tube, and then 100 μL of Belinostat solution diluted with the LB medium was added, so that the final drug concentration was 500 μM. DMSO and the LB medium were added to the blank control group, so that the final concentration of the DMSO was 0.5% and a volume of a reaction system was consistent with that of the drug treated group. Three replicate tube were set in each group, and shaking culture was performed at 37° C. for 4 hours. […]

A further test deals with HU^171A protein (Bacillus subtilis, UniProt P08821, I71A). Kind of test: waterLOGSY 1D NMR binding experiment, mutated HU protein. To be noted: 10 μM protein, pH 6.5 buffer.
Sequence of HU^171A protein (P08821 whole entry I71A): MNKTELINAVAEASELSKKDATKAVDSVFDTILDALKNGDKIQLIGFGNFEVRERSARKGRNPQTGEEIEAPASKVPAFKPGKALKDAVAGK
Text: as §1, §3

In the next test the test system is Staphylococcus aureus. As to the kind of experiment: Transmission electron microscope observation of Staphylococcus aureus. In kind it is cell-based. To be noted: 500 μM, 4 hours. The method, then: as §2
(§5) A bacterial solution of Bacillus subtilis cultured in an LB medium was diluted to 5×10^5 CFU/mL with the LB medium, 2.5 mL of diluted bacterial solution was taken and added to a 15 mL centrifuge tube, and then 2.5 mL of Belinostat solution diluted with the LB medium was added, so that the final drug concentration was 500 μM. 25 μL of DMSO and an appropriate amount of LB medium were added to the blank control group (the Control group) to ensure that a volume of a reaction system was consistent with that of the drug treated group (the Treated group). Three replicate tubes were set in each group. Shaking culture was performed at 37° C. for 4 hours, and bacteria were collected by centrifugation. […]

For test [5], the system named is Bacillus subtilis. Kind of test: DAPI staining of Bacillus subtilis. In kind it is cell-based. The note with it: 500 μM, 4 hours. The protocol: as §2, §4
Test [6] is described as follows: Mouse superficial skin injury infection model, wound healing. In kind it is in vivo, BALB/c mice. The note with it: mice, low-concentration group 0.1 μM vs high-concentration group 100 μM and fusidic acid group. The method, then: (§6) Medical tape; 3% chloral hydrate; normal saline; 0.1 μM Belinostat and 100 μM Belinostat (with solvents being 10% glycerin); a commercially available fusidic acid ointment (2% drug content); an LB plate; an independent air supply cage for mice; surgical scissors; tweezers; and a hair removal device.
(§7) 20 female BALB/c mice aged 6-8 weeks were kept in the independent air supply cage.
Back skin of 6-8 week-old female BALB/c mice was depilated with a depilatory paste before modeling, and an exposed skin region with a size of about 1 cm^2 was formed. On the day of modeling, the mice were anesthetized by intraperitoneal injection of 3% chloral hydrate at 10 mL/kg. A same operator pasted the medical adhesive tape to the depilated skin of the mice with basically a same strength, and then tore the medical adhesive tape off. […]
The mice were randomly divided into four groups, which were a blank control (control) group, a low-concentration X group (low-concentration group, with a specific concentration of 0.1 μM), a high-concentration X group (high-concentration group, with a specific concentration of 100 μM), and a fusidic acid group (fusidic acid group, that is, a positive control group), with five mice in each group. All the mice of the blank control group were killed the day before the start of treatment to quantify an amount of bacterial inoculation. […]

The test system of test [7] is Bacillus subtilis. Kind of test: Transmission electron microscope observation of Bacillus subtilis. To be noted: 500 μM, 4 hours. In kind it is cell-based. The method, then: as §2, §5
Test [8] relates to Staphylococcus aureus (ATCC BAA-1761 strain). As to the kind of experiment: Mouse superficial skin injury infection model, viable bacterial count on infected wound. In kind it is in vivo. The note with it: mice; for bacterial count in skin lesion site compared with blank control group: topical twice a day for 3 days, p.value=0.0006. The protocol:
as §6, §7
Preparation of a bacterial solution: Staphylococcus aureus (ATCC BAA-1761 strain), preserved by the Laboratory Department of the First Affiliated Hospital of Xi′an Jiaotong University. Before the experiment, Staphylococcus aureus was inoculated in 5 mL of LB and placed in an incubator at 37° C. for shaking culture, and when the amount of bacteria was about 10^7 CFU/mL, the bacteria were taken out for use.
Back skin of 6-8 week-old female BALB/c mice was depilated with a depilatory paste before modeling, and an exposed skin region with a size of about 1 cm^2 was formed. On the day of modeling, the mice were anesthetized by intraperitoneal injection of 3% chloral hydrate at 10 mL/kg. A same operator pasted the medical adhesive tape to the depilated skin of the mice with basically a same strength, and then tore the medical adhesive tape off. The foregoing paste-tear operation was repeated many times to remove stratum corneum, and the adhesive tape needed to be replaced during each paste-tear process. When the skin of the mice became red and shiny, but there was no regular bleeding, the paste was stopped. The foregoing 10 μL of bacterial suspension was evenly applied to the damaged skin of the mice, and the infection lasted for 24 hours to establish the model of superficial skin injury of the mice.
The mice were randomly divided into four groups, which were a blank control (control) group, a low-concentration X group (low-concentration group, with a specific concentration of 0.1 μM), a high-concentration X group (high-concentration group, with a specific concentration of 100 μM), and a fusidic acid group (fusidic acid group, that is, a positive control group), with five mice in each group. All the mice of the blank control group were killed the day before the start of treatment to quantify an amount of bacterial inoculation. The three drug groups were administered twice a day (8:00 am. and 8:00 p.m. respectively) for three consecutive days after the infection. Dosages of the low-concentration X group and the high-concentration X group were 50 μL/time for each mouse, and a dosage of the fusidic acid group was 0.1 g/time for each mouse. […] After the experiment, the mice were killed.
After the mice were killed, a wound of about 1 cm^2 was excised immediately, and put into a tissue homogenizing tube with 1 mL of normal saline and magnetic beads for tissue homogenization. 100 μL of tissue homogenate was diluted with normal saline for 10^1, 10^2, 10^3, and 10^4 times gradient, and then 100 μL of each diluted solution was evenly spread on an LB plate. After inverted overnight culture for 12-24 hours, colonies were counted and the count was converted into bacterial content (CFU/cm^2) per square centimeter of tissue.

T1 sequence (P08821 whole entry): as the sequence (P08821 whole entry I71A) above, with A71I counted along it

As to `O=C(/C=C/c1cccc(S(=O)(=O)Nc2ccccc2)c1)NO` [Belinostat, N-hydroxy-3-(3-[(phenylamino)sulfonyl]phenyl)acrylamide], on HU protein [1], the “binding to HU protein (peak migration and peak intensity change in HSQC spectrum)” value was “can bind to the HU protein”. The “effect on growth of Bacillus subtilis (absorbance at 600 nm vs blank control)” value in test [2] (200 μM) is given as “relatively strong inhibitory effect on bacterial growth”. The “effect on growth of Bacillus subtilis” value in test [2] (400 μM) is reported as “almost completely inhibited”; in test [2] (500 μM), “almost completely inhibited”; in [2] (different concentrations (100, 200, 400, 500 μM), 37° C.) it was “inhibitory effect on growth of Bacillus subtilis”. In addition, the “binding to HU protein (waterLOGSY peaks reversed into negative peaks)” value on HU protein [3] is reported as “bound to the HU protein”. Also, the entries for the “DAPI staining, nucleus region morphology” value (in test [4]; with Bacillus subtilis [5]) were “bacterial nucleus region was dispersed” and “bacterial nucleus region became longer”, respectively. For the same molecule, the “binding to mutated HU^171A protein (waterLOGSY)” value on HU^171A protein was “could not react with the mutated HU protein”. Moreover, the “transmission electron microscope, nucleoid regions” value with Staphylococcus aureus was “became inconspicuous and showed a loose state”. In addition, the wound healing speed entry in test [6] is reported as “significantly faster”. Moreover, the “transmission electron microscope, cell length and nucleoid regions” value in the test with Bacillus subtilis [7] was “increased to different degrees, and nucleoid regions were scattered in many places in cytoplasm”. The “bacterial load at the skin lesion site, two concentrations” value in test [8] (0.1 μM and 100 μM, 50 μL/time, twice a day, 3 days) is given as “same bactericidal effect”. The “antibacterial ability compared with commercial fusidic acid” value in test [8] (dosage of Belinostat lower than that of fusidic acid) is listed as “equivalent antibacterial ability”. Besides, the “curative effect compared with fusidic acid” value in [8] (molar dosages much lower than fusidic acid) was “better than that of the fusidic acid”. Moreover, in [8], the “bacterial count in skin lesion site compared with blank control group” value was “significantly reduced”.

With `CC(=O)O[C@H]1C[C@@]2(C)[C@@H](C[C@@H](O)[C@H]3[C@@]4(C)CC[C@@H](O)[C@@H](C)[C@@H]4CC[C@@]32C)/C1=C(\CCC=C(C)C)C(=O)O` [fusidic acid], the “bacterial count in skin lesion site compared with blank control group” value in test [8] is “significantly reduced”.
